Results as given in patent US7112585B2, “Pyrimidine derivatives as corticotropin releasing factor inhibitors” (Bristol-Myers Squibb Company, priority 2003, dated 2006).

Key:
[1] = target: T1, cloned human CRF-R1 receptors (Homo sapiens, UniProt P34998); test: CRF-R1 Receptor Binding Assay (inhibition of 125I-ovine-CRF binding to cell membranes); parameters: key to activity: a: Ki≦100 nM; b: 100 nM<Ki≦500 nM; c: 500 nM<Ki≦5,000 nM; activity reported in percent inhibition at 10 μM; conditions: CRF assays; class d = activity only as percent inhibition at 10 μM (value not given)
T1 construct: the coding region was amplifies by PCR from start to stop codons; expressed in transfected cells; host or cells: 293EBNA (HEK 293 EBNA-1) cells, episomal vector phchCRFR, hygromycin-selected pool; membranes
T1 sequence (P34998 24-415): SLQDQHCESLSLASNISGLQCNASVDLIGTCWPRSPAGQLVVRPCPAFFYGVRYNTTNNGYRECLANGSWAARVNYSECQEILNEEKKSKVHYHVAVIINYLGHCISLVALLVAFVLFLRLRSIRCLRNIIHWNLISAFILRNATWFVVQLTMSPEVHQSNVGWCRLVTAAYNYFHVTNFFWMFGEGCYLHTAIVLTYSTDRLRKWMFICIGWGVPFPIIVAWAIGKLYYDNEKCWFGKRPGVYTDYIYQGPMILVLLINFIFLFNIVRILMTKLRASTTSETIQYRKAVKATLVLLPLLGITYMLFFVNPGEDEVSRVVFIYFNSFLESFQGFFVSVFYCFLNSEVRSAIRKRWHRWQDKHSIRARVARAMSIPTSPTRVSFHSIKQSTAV
Excerpt: CRF-R1 Receptor Binding Assay for the Evaluation of Biological Activity
The following is a description of the isolation of cell membranes containing cloned human CRF-R1 receptors for use in a standard binding assay as well as a description of the assay itself.
Messenger RNA was isolated from human hippocampus. The mRNA was isolated from human hippocampus. The mRNA was reverse transcribed using oligo (dt) 12–18 and the coding region was amplifies by PCR from start to stop codons. The resulting PCR fragment was cloned into the EcORV site of pGEMV, from whence the insert was reclaimed using XhoI+XbaI and cloned into the XhoI+XbaI sites of vector pm3as (which contains a CMV promoter, the SV′t′ splice and early poly A signals, an Eptein-Barr viral origin of replication, and a hygromycin selectable marker). The resulting expression vector, called phchCRFR was transfected in 293EBNA cells and cells retaining the episome were selected in the presence of […] hygromycin. Cells surviving 4 weeks of selection in hygromycin were pooled, adapted to growth in suspension and used to generate membranes for the binding assay described below. Individual aliquots containing approximately 1×10^8 of the suspended cells were then centrifuged to form a pellet and frozen. For the binding assay a frozen pellet described above containing 293EBNA cells transfected with hCRFR1 receptors is homogenized in 10 mL of ice cold tissue buffer (50 mM HEPES buffer pH 7.0, containing 10 MM MgCl2, 2 mM EGTA, 1 μg/mL apotinin, 1 μg/mL leupeptin and 1 μg/mL pepstatin). The homoginate is centrifuged at 40,000×g for 12 min and the resulting pellet rehomogenized in 10 mL of tissue buffer. After another centrifugation at 40,000×g for 12 min, the pellet is resuspended to a protein concentration of 360 μg/mL to be used in the assay.
Binding assays are performed in 96 well plates; each well having a 300 μL capacity. To each well is added 50 μL of test drug dilutions (final concentration of drugs range from 10^−10–10^−5 M), 100 μL of ^125I-ovine-CRF (^125I-o-CRF) (final concentration 150 pM) and 150 μL of the cell homoginate described above. Plates are then allowed to incubate at room temperature for 2 hours before filtering the incubate over GF/F filters (presoaked with 0.3% polyethyleneimine) using an appropriate cell harvester. Filters are rinsed 2 times with ice cold assay buffer before removing individual filters and assessing them for radioactivity on a gamma counter.
Curves of the inhibition of ^125I-o-CRF binding to cell membranes at various dilutions of test drug are analyzed by the iterative curve fitting program LIGAND [P. J. Munson and D. Rodbard, Anal. Biochem., 107:220 (1980), which provides Ki values for inhibition which are then used to assess biological activity. […]
Messenger RNA was isolated from human hippocampus. The mRNA was isolated from human hippocampus. The mRNA was reverse transcribed using oligo (dt) 12–18 and the coding region was amplifies by PCR from start to stop codons. The resulting PCR fragment was cloned into the EcORV site of pGEMV, from whence the insert was reclaimed using XhoI+XbaI and cloned into the XhoI+XbaI sites of vector pm3as (which contains a CMV promoter, the SV′t′ splice and early poly A signals, an Eptein-Barr viral origin of replication, and a hygromycin selectable marker). The resulting expression vector, called phchCRFR was transfected in 293EBNA cells and cells retaining the episome were selected in the presence of […] hygromycin. Cells surviving 4 weeks of selection in hygromycin were pooled, adapted to growth in suspension and used to generate membranes for the binding assay described below. […]
A frozen pellet described above containing 293EBNA cells transfected with hCRFR1 receptors or the rat frontal cortex tissue dissected from frozen rat brains was prepared as the source of membranes expressing CRF1 receptors used in binding assays. […]

Ki [1] [nM] | melting point [°C] | activity [1] | Structure (SMILES)
100 to 500 | 153 to 155 | – | COc1ccc(S(=O)(=O)c2cnc(C)nc2Nc2c(C)cc(C)cc2C)cc1 [Example 1, [5-(4-Methoxybenzenesulfonyl)-2-methylpyrimidin-4-yl]-(2,4,6-trimethylphenyl)-amine]
500 to 5000 | 246 to 248 | – | Cc1cc(C)c(Nc2nc(C)ncc2S(=O)(=O)c2ccc(O)cc2)c(C)c1 [Example 2, 4-[2-Methyl-4-(2,4,6-trimethylphenylamino)-pyrimidine-5-sulfonyl]-phenol]
500 to 5000 | 142 to 144 | – | CC(=O)Oc1ccc(S(=O)(=O)c2cnc(C)nc2Nc2c(C)cc(C)cc2C)cc1 [Example 3, Acetic acid 4-[2-methyl-4-(2,4,6-trimethylphenylamino)-pyrimidine-5-sulfonyl]-phenyl ester]
≤ 100 | 200 to 202 | – | COc1ccccc1COc1ccc(S(=O)(=O)c2cnc(C)nc2Nc2c(C)cc(C)cc2C)cc1 [Example 10, {5-[4-(2-Methoxybenzyloxy)-benzenesulfonyl]-2-methylpyrimidin-4-yl}-(2,4,6-trimethylphenyl)-amine]
100 to 500 | 150 to 152 | – | COc1ccc(S(=O)(=O)c2cnc(C)nc2Cc2c(C)cc(C)cc2C)cc1 [Example 13, 5-(4-Methoxyoxybenzenesulfonyl)-2-methyl-4-(2,4,6-trimethylbenzyl)-pyrimidine]
≤ 100 | 166 to 168 | – | Cc1cc(C)c(Cc2nc(C)ncc2S(=O)(=O)c2ccc(OCc3ccccc3)cc2)c(C)c1 [Example 14, 5-(4-Benzyloxybenzenesulfonyl)-2-methyl-4-(2,4,6-trimethylbenzyl)-pyrimidine]
100 to 500 | 191 to 193 | – | Cc1cc(C)c(Nc2nc(C)ncc2S(=O)(=O)c2ccc(F)cc2)c(C)c1 [Example 15, [5-(4-Fluorobenzenesulfonyl)-2-methylpyrimidin-4-yl]-(2,4,6-trimethylphenyl)-amine]
500 to 5000 | 258 to 260 | – | Cc1cc(C)c(Nc2nc(C)ncc2S(=O)(=O)c2ccc(C#N)cc2)c(C)c1 [Example 22, 4-[2-Methyl-4-(2,4,6-trimethylphenylamino)-pyrimidine-5-sulfonyl]-benzonitrile]
100 to 500 | 202 to 204 | – | Cc1ccc(S(=O)(=O)c2cnc(C)nc2Nc2c(C)cc(C)cc2C)cc1 [Example 23, [2-Methyl-5-(toluene-4-sulfonyl)-pyrimidin-4-yl]-(2,4,6-trimethylphenyl)-amine]

More lines, now with the values behind:

Structure (SMILES) | Ki [1] [nM] | melting point [°C] | activity [1]
Cc1cc(C)c(Nc2nc(C)ncc2S(=O)(=O)c2ccc(OCc3ccccc3)cc2)c(C)c1 [Example 4, [5-(4-Benzyloxybenzenesulfonyl)-2-methylpyrimidin-4-yl]-(2,4,6-trimethylphenyl)-amine] | ≤ 100 | 166 to 168 | –
COc1ccc(Nc2nc(C)ncc2S(=O)(=O)c2ccc(OCc3ccccc3)cc2)c(C)c1 [Example 5, [5-(4-Benzyloxybenzenesulfonyl)-2-methylpyrimidin-4-yl]-(4-methoxy-2-methylphenyl)-amine] | 100 to 500 | 110 to 114 | –
COc1ccc(Nc2nc(C)ncc2S(=O)(=O)c2ccc(OCc3ccccc3)cc2)c(C)n1 [Example 6, [5-(4-Benzyloxybenzenesulfonyl)-2-methylpyrimidin-4-yl]-(6-methoxy-2-methylpyridin-3-yl)-amine] | – | 160 to 165 | d
Cc1cc(C)c(Nc2nc(C)ncc2S(=O)(=O)c2cccc(OCc3ccccc3)c2)c(C)c1 [Example 7, [5-(3-Benzyloxybenzenesulfonyl)-2-methylpyrimidin-4-yl]-(2,4,6-trimethylphenyl)-amine] | 100 to 500 | 112 to 115 | –
COc1ncc(S(=O)(=O)c2cccc(OCc3ccccc3)c2)c(Nc2c(C)cc(C)cc2C)n1 [Example 8, [5-(3-Benzyloxybenzenesulfonyl)-2-methoxypyrimidin-4-yl]-(2,4,6-trimethylphenyl)-amine] | – | – | d
Cc1cc(C)c(Nc2nc(N(C)C)ncc2S(=O)(=O)c2cccc(OCc3ccccc3)c2)c(C)c1 [Example 9, 5-(3-Benzyloxybenzenesulfonyl)-N^2,N^2-dimethyl-N^4-(2,4,6-trimethylphenyl)-pyrimidine-2,4-diamine] | 500 to 5000 | 52 to 58 | –
COc1cc(COc2ccc(S(=O)(=O)c3cnc(C)nc3Nc3c(C)cc(C)cc3C)cc2)cc(OC)c1 [Example 11, {5-[4-(3,5-Dimethoxybenzyloxy)-benzenesulfonyl]-2-methylpyrimidin-4-yl}-(2,4,6-trimethylphenyl)-amine] | ≤ 100 | – | –
COc1ccc(Nc2nc(C)ncc2S(=O)(=O)c2ccc(OCc3ccccc3)cc2)c(OC)c1 [Example 12, [5-(4-Benzyloxybenzenesulfonyl)-2-methylpyrimidin-4-yl]-(2,4-dimethoxyphenyl)-amine] | – | – | d
Cc1cc(C)c(Nc2nc(C)ncc2S(=O)(=O)c2ccc(N3CCOCC3)cc2)c(C)c1 [Example 16, [2-Methyl-5-(4-morpholin-4-yl-benzenesulfonyl)-pyrimidin-4-yl]-(2,4,6-trimethylphenyl)-amine] | – | 221 to 223 | d
Cc1cc(C)c(Nc2nc(C)ncc2S(=O)(=O)c2ccc(N3CCN(C)CC3)cc2)c(C)c1 [Example 17, {2-Methyl-5-[4-(4-methylpiperazin-1-yl)-benzenesulfonyl]-pyrimidin-4-yl}-(2,4,6-trimethylphenyl)-amine] | – | – | d
Cc1cc(C)c(Nc2nc(C)ncc2S(=O)(=O)c2ccc(-n3ccnc3)cc2)c(C)c1 [Example 18, [5-(4-Imidazol-1-yl-benzenesulfonyl)-2-methylpyrimidin-4-yl]-(2,4,6-trimethylphenyl)-amine] | – | 230 to 232 | d
Cc1cc(C)c(Nc2nc(C)ncc2S(=O)(=O)c2ccc(N3CCCC3)cc2)c(C)c1 [Example 19, [2-Methyl-5-(4-pyrrolidin-1-yl-benzenesulfonyl)-pyrimidin-4-yl]-(2,4,6-trimethylphenyl)-amine] | – | 196 to 198 | d
Cc1cc(C)c(Nc2nc(C)ncc2S(=O)(=O)c2ccc(NCc3ccccc3)cc2)c(C)c1 [Example 20, [5-(4-Benzylaminobenzenesulfonyl)-2-methylpyrimidin-4-yl]-(2,4,6-trimethylphenyl)-amine] | 100 to 500 | 200 to 202 | –
Cc1cc(C)c(Nc2nc(C)ncc2S(=O)(=O)c2ccc(N(C)Cc3ccccc3)cc2)c(C)c1 [Example 21, {5-[4-(Benzylmethylamino)-benzenesulfonyl]-2-methylpyrimidin-4-yl}-(2,4,6-trimethylphenyl)-amine] | ≤ 100 | 146 to 148 | –
